Laboratory results published in DBAASP.
Converted amounts (≈) assume the structure as drawn. “And” between values parts separate entries of the source, which are not always exact repeats. Equal values may be shown once.

Key:
Assay in all cases: ≥ marks a high value that may be exact or a test limit, other limits are often not marked, values filed in µg/mL are converted to µM
[1] = system: Candida albicans ATCC 90028
[2] = system: Candida albicans NCPF 1467
[3] = system: Escherichia coli ATCC 11775
[4] = system: Escherichia coli ATCC 25922
[5] = system: Escherichia coli NCTC 10418
[6] = system: Staphylococcus aureus ATCC 12493
[7] = system: Staphylococcus aureus ATCC 12600
[8] = system: Staphylococcus aureus ATCC 25923
[9] = system: Staphylococcus aureus NCTC 10788
[10] = system: Staphylococcus aureus NCTC 8325
Escherichia coli W160-37 = system: Escherichia coli W160-37
Pseudomonas aeruginosa = system: Pseudomonas aeruginosa
Staphylococcus aureus = system: Staphylococcus aureus
[11] = system: Pseudomonas aeruginosa ATCC 27853
[12] = system: Staphylococcus aureus ATCC 33591
[13] = system: Staphylococcus epidermidis ATCC 35984
[14] = system: Bacillus subtilis MTCC 14416
Escherichia coli MG1655 = system: Escherichia coli MG1655
[15] = system: Staphylococcus aureus MTCC 9542
Vibrio cholerae = system: Vibrio cholerae
Botrytis cinerea = system: Botrytis cinerea
[16] = system: Candida albicans ATCC 10231
Bacillus subtilis = system: Bacillus subtilis
[17] = system: Pectobacterium carotovorum
[18] = system: Enterococcus faecalis ATCC 29212
[19] = system: Staphylococcus aureus ATCC 43300
[20] = system: Bacillus subtilis IFO 3513
[21] = system: Escherichia coli IFO 12734
[22] = system: Staphylococcus aureus IFO 12732
[23] = system: Bacillus megaterium ATCC 19213
[24] = system: Bacillus subtilis NBRC 3513
[25] = system: Staphylococcus aureus NBRC 12732
[26] = system: Staphylococcus epidermidis NBRC 12933
[27] = system: Candida albicans ATCC 64550
[28] = system: Pseudomonas aeruginosa PAO1

`CC[C@H](C)[C@@H]1NC(=O)[C@H](CC(C)C)NC(=O)[C@@H](NC(=O)[C@H](Cc2ccccc2)NC(=O)[C@H](CC(C)C)NC(=O)[C@H](CCCCN)NC(=O)[C@@H]2CCCN2C(=O)[C@H](CC(C)C)NC(=O)[C@H](C)NC(=O)[C@H](C)NC(=O)[C@H](CC(C)C)NC(=O)[C@H](C)NC(=O)[C@H](CC(C)C)NC(=O)[C@H](CO)NC(=O)[C@H](CC(C)C)NC(=O)[C@@H](N)Cc2ccccc2)CSSC[C@@H](C(=O)O)NC(=O)[C@H](CCCCN)NC(=O)[C@H](CCCCN)NC(=O)[C@H](Cc2ccccc2)NC1=O` [FLSLALAALPKLFCLIFKKC] gave an MIC [1] of at least 100 µM, an MIC [2] of at least 32 µM and an MIC [3] of 25 µM (≈ 55.9 µg/mL). For the same compound, the MIC [4] was > 60 µM and 100 µM, the MIC [5] was at least 512 µM and the MIC [6] was at least 32 µM. The MIC [7] was 12.5 µM (≈ 28 µg/mL), the MIC [8] was over 60 µM and the MIC [9] was at least 32 µM. The MIC [10] was 13 µM (≈ 29.1 µg/mL).

In the case of `CC[C@H](C)[C@H](NC(=O)CN)C(=O)N[C@@H](Cc1c[nH]c2ccccc12)C(=O)N[C@@H](CCCCN)C(=O)N[C@@H](CO)C(=O)N[C@@H](CC(C)C)C(=O)N[C@@H](Cc1ccccc1)C(=O)N[C@H](C(=O)N[C@@H](CCCCN)C(=O)N[C@@H](CC(C)C)C(=O)N[C@@H](CC(C)C)C(=O)N[C@@H](CCCCN)C(=O)NCC(N)=O)[C@@H](C)O` [GIWKSLFTKLLKG], the MIC (Escherichia coli W160-37) is reported as 3.35 µM (≈ 5 µg/mL), the MIC (Pseudomonas aeruginosa) is reported as 10.1 µM (≈ 15 µg/mL) and the MIC (Staphylococcus aureus) is reported as 6.71 µM (≈ 9.99 µg/mL).

`CC(C)C[C@H](NC(=O)[C@H](Cc1ccccc1)NC(=O)[C@H](CCCCN)NC(=O)CN)C(=O)N[C@@H](CCCCN)C(=O)N[C@@H](CCCCN)C(=O)N[C@@H](C)C(=O)N[C@@H](CCCCN)C(=O)N[C@@H](CCCCN)C(=O)N[C@@H](Cc1ccccc1)C(=O)NCC(=O)N[C@@H](CCCCN)C(N)=O` [GKFLKKAKKFGK] was tested, and the MIC [11] was over 371 µM, the MIC [8] was over 371 µM and the MIC [12] was at least 371 µM. For the same compound, the MIC [13] was at least 262 µM.

In the case of `CC[C@H](C)[C@@H]1NC(=O)[C@H](CCCCN)NC(=O)[C@@H](NC(=O)[C@H](CC(C)C)NC(=O)[C@@H](NC(=O)[C@H](CCC(N)=O)NC(=O)[C@@H]2CCCN2C(=O)[C@H](CC(C)C)NC(=O)[C@H](Cc2ccccc2)NC(=O)[C@H](CC(N)=O)NC(=O)[C@H](C)NC(=O)[C@H](C)NC(=O)[C@H](CC(C)C)NC(=O)CN)[C@@H](C)CC)CSSC[C@@H](C(N)=O)NC(=O)[C@H](CCCCN)NC(=O)[C@H](CCCN=C(N)N)NC(=O)[C@H](C)NC1=O` [GLAANFLPQILCKIARKC], the MIC [14] is reported as at least 51 µM, the MIC (Escherichia coli MG1655) is reported as at least 51 µM and the MIC [11] is reported as over 51 µM. For the same compound, the MIC [15] was 25.5 µM (≈ 49.9 µg/mL) and the MIC (Vibrio cholerae) was 25.5 µM (≈ 49.9 µg/mL).

In the case of `CC[C@H](C)[C@H](N)C(=O)N[C@@H](CC(N)=O)C(=O)N[C@@H](CC(C)C)C(=O)N[C@@H](CCCCN)C(=O)NCC(=O)N[C@@H](CC(C)C)C(=O)N[C@H](C(=O)N[C@@H](CCCCN)C(=O)N[C@@H](CCCCN)C(=O)N[C@H](C(=O)N[C@@H](C)C(=O)N[C@@H](CO)C(=O)N[C@@H](CC(C)C)C(=O)N[C@@H](CC(C)C)C(=O)N[C@H](C(=O)O)[C@@H](C)O)C(C)C)[C@@H](C)CC` [INLKGLIKKVASLLT], the MIC (Botrytis cinerea) is reported as 5 µM (≈ 8.06 µg/mL), the MIC [16] is reported as 100 µM (≈ 161 µg/mL) and the MIC [3] is reported as 25 µM (≈ 40.3 µg/mL). For the same compound, the MIC [7] was at least 100 µM.

Compound `CC[C@H](C)[C@H](NC(=O)[C@H](CO)NC(=O)[C@H](CCCN=C(N)N)NC(=O)CNC(=O)[C@H](CCC(=O)O)NC(=O)[C@H](CC(C)C)NC(=O)[C@H](CCC(=O)O)NC(=O)[C@H](CC(C)C)NC(=O)[C@H](CO)NC(=O)[C@H](CC(=O)O)NC(=O)[C@H](Cc1ccc(O)cc1)NC(=O)[C@H](CCCN=C(N)N)NC(=O)[C@H](Cc1ccc(O)cc1)NC(=O)CNC(=O)[C@H](Cc1ccccc1)NC(=O)[C@@H](N)CCCCN)C(=O)N[C@@H](CO)C(=O)N[C@@H](CCCN=C(N)N)C(=O)N[C@H](C(=O)N[C@@H](CC(=O)O)C(=O)N[C@@H](CCC(=O)O)C(=O)N[C@@H](CC(C)C)C(=O)N[C@H](C(=O)N[C@@H](CCC(N)=O)C(=O)N[C@@H](CCC(N)=O)C(=O)N[C@@H](CCCN=C(N)N)C(=O)O)[C@@H](C)CC)[C@@H](C)CC` [KFGYRYDSLELEGRSISRIDELIQQR] has an MIC (Bacillus subtilis) of 2.45 µM (≈ 7.77 µg/mL) and an MIC [17] of 0.632 µM (≈ 2.01 µg/mL).

Compound `CC(C)C[C@H](NC(=O)[C@H](Cc1ccccc1)NC(=O)[C@@H](N)CCCCN)C(=O)N[C@@H](CCCCN)C(=O)N[C@@H](CCCCN)C(=O)N[C@@H](C)C(=O)N[C@@H](CCCCN)C(=O)N[C@@H](CCCCN)C(=O)N[C@@H](Cc1ccccc1)C(=O)NCC(=O)N[C@@H](CCCCN)C(=O)N[C@@H](C)C(N)=O` [KFLKKAKKFGKA] has an MIC [11] of 367 µM (≈ 512 µg/mL), an MIC [8] of over 367 µM and an MIC [12] of at least 367 µM. It also gave an MIC [13] of at least 367 µM.

`CC[C@H](C)[C@H](NC(=O)[C@H](CCCCN)NC(=O)[C@H](CS)NC(=O)[C@H](CC(C)C)NC(=O)[C@@H](NC(=O)[C@H](CCC(N)=O)NC(=O)[C@@H]1CCCN1C(=O)[C@H](CC(C)C)NC(=O)[C@H](Cc1ccccc1)NC(=O)[C@H](CC(N)=O)NC(=O)[C@H](C)NC(=O)[C@H](C)NC(=O)[C@H](CC(C)C)NC(=O)CNC(=O)[C@H](C)NC(=O)[C@@H](NC(=O)[C@@H](N)CC(C)C)[C@@H](C)CC)[C@@H](C)CC)C(=O)N[C@@H](C)C(=O)N[C@@H](CCCN=C(N)N)C(=O)N[C@@H](CCCCN)C(=O)N[C@@H](CS)C(N)=O` [LIAGLAANFLPQILCKIARKC] was tested, and the MIC [14] was 22.2 µM (≈ 50 µg/mL), the MIC [18] was 44.3 µM (≈ 100 µg/mL) and the MIC (Escherichia coli MG1655) was 11.1 µM (≈ 25 µg/mL). For the same compound, the MIC [11] was over 44.3 µM, the MIC [19] was over 44.3 µM and the MIC [15] was at least 44.3 µM. The MIC (Vibrio cholerae) was 11.1 µM (≈ 25 µg/mL).

`CC[C@H](C)[C@H](NC(=O)[C@H](CC(C)C)NC(=O)[C@@H]1CCCN1C(=O)[C@H](Cc1c[nH]c2ccccc12)NC(=O)[C@H](CCCCN)NC(=O)[C@H](Cc1c[nH]c2ccccc12)NC(=O)[C@@H]1CCCN1C(=O)[C@H](CC(C)C)NC(=O)[C@H](CC(C)C)NC(=O)[C@@H]1CCCN1C(=O)[C@H](Cc1c[nH]c2ccccc12)NC(=O)[C@H](CCCN=C(N)N)NC(=O)[C@@H](N)CCCN=C(N)N)C(N)=O` [RRWPLLPWKWPLI] gave an MIC [20] of 3.55 µM (≈ 6.25 µg/mL), an MIC [21] of 14.2 µM (≈ 25 µg/mL) and an MIC [22] of 3.55 µM (≈ 6.25 µg/mL).

Compound `CC(C)C[C@H](NC(=O)[C@H](CCCCN)NC(=O)[C@H](CC(C)C)NC(=O)[C@H](CC(C)C)NC(=O)[C@H](Cc1c[nH]c2ccccc12)NC(=O)[C@@H](N)CCCN=C(N)N)C(=O)NCC(=O)N[C@@H](Cc1cnc[nH]1)C(=O)N[C@@H](Cc1cnc[nH]1)C(=O)NCC(=O)N[C@@H](CCCN=C(N)N)C(=O)O` [RWLLKLGHHGR] has an MIC [23] of at least 32 µM, an MIC [24] of at least 64 µM and an MIC [25] of at least 64 µM. It also gave an MIC [26] of at least 128 µM.

`CC(C)[C@H](NC(=O)[C@H](CCCN=C(N)N)NC(=O)[C@@H](NC(=O)[C@H](CCCN=C(N)N)NC(=O)[C@H](Cc1c[nH]c2ccccc12)NC(=O)[C@H](CCCN=C(N)N)NC(=O)[C@@H](N)Cc1c[nH]c2ccccc12)C(C)C)C(=O)N[C@@H](Cc1c[nH]c2ccccc12)C(=O)N[C@@H](CCCN=C(N)N)C(N)=O` [WRWRVRVWR] showed an MIC [27] of at least 100 µM and an MIC [28] of 1.79 µM (≈ 2.5 µg/mL).
